Where two headings read alike, the source gives them in different places.
Columns and labels:
[1] = system: P388 cell line; assay: P388 murine lymphocytic leukemia cell assay; format: cell-based; settings: Mus musculus, P388, 120 h; 5 days incubation, MTT; read-out: P388 Assay ED50
Description: Cells from a P388 cell line (CellGate, Inc., Sunnyvale, Calif.) are grown in RPMI 1640 cell medium containing fetal calf serum (10%), L-glutamine, penicillin, streptomycin and are split twice weekly. All compounds are first diluted with DMSO. Later serial dilutions are done with a phosphate buffer solution (HYQ DPBS modified phosphate buffered saline). All dilutions are done in glass vials and the final DMSO concentration is always below 0.5% by volume. Final two-fold dilutions are done in a 96 well plate using cell media so that each well contains 50 μL. All compounds are assayed in quadruplicate over 12 concentrations. Cell concentration is measured using a hemacytometer and the final cell concentration is adjusted to 1×10^4 cells/mL with cell medium. The resulting solution of cells (50 μL) is then added to each well and the plates are incubated for 5 days in a 37° C., 5% CO2, humidified incubator (Sanyo CO2 incubator). MTT solution (3-[4,5-dimethylthiazol-2-yl]-2,5-diphenyltetrazolium bromide, 10 μL) is then added to each well and the plates are re-incubated under identical conditions for 2 h. To each well is then added acidified isopropanol (150 μL of i-PrOH solution containing 0.05 N HCl) and mixed thoroughly. The plates are then scanned at 595 nm and the absorbances are read (Wallac Victor 1420 Multilabel Counter). The resulting data is then analyzed to determine an ED50 value using the Prism software package (GraphPad).

[2] = target: T1, PKCδ-C1B (Mus musculus, UniProt P28867); assay: PKCδ-C1B assay; format: binding
T1 construct: made in house
T1 sequence (P28867 231-281 limits assumed): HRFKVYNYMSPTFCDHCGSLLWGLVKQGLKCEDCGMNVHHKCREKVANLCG
Description: Phosphatidyl serine vesicles are prepared by the addition of phosphatidyl serine (10 mg/mL in chloroform, 0.4 mL) to a glass test tube followed by removal of the chloroform under a stream of nitrogen (5 min). […] The resulting solution is stored over ice. […] Stock solutions of compounds are diluted with absolute ethanol in glass in serial fashion. […] The tubes are incubated at 37° C. for 90 min. and then put on ice for 5 min. Each tube is then filtered separately through a pre-soaked filter disc. […] The filter is subsequently rinsed with cold 20 mM TRIS buffer (5 mL) dropwise. […] The filters are immediately counted in a scintillation counter (Beckman LS 6000SC). Counts per minute are averaged among three trials at each concentration.

[3] = target: PKC purified from rat brain (mixture of PKC isoenzymes); assay: Protein kinase C (isozyme mix) assay; format: binding; settings: determined under identical conditions to the PKC isozyme mix assay; read-out: Kd of [H^3]-PDBu
Description: In one approach, anticancer activity of compounds of the invention can be assessed using the protein kinase C assay detailed in Example 5. In this assay, Ki values are determined for analogues based on competition with radiolabeled phorbol 12,13-dibutyrate for binding to a mixture of PKC isoenzymes. PKC enzymes are implicated in a variety of cellular responses which may be involved in the activity of the bryostatins.
The following procedure was used, based on a modification of a previous procedure described by Tanaka et al. (1986). Filters (Whatman GF-B, 21 mm diam.) are soaked for 1 h in a solution containing deionized water (97 mL), and 10% polyethyleneamine (3 mL). A filtering buffer solution containing TRIS (1M, pH 7.4, 10 mL) and water (490 mL) is prepared and cooled on ice. […] Non-specific binding is measured in 1–3 tubes by the substitution of phorbol myristate acetate (PMA) (1 mM, 5 μL) and EtOH (15 μL) for the analogue/EtOH combination. […] The filters are immediately counted in a scintillation counter (Beckman LS 6000SC). […] The data is then plotted using a least squares fit algorithm with the Macintosh version of Kaleidagraph© (Abelbeck Software) and an IC50 (defined as the concentration of analogue required to displace half of the specific PDBU binding to PKC) is calculated. […]

Compound	EC50 [1] [nM]	Ki ([2]; competition with tritiated phorbol 12,13-dibutyrate, read-out: PKCδ-C1B Assay Ki) [nM]	Ki [2] [nM]	Kd [3] [nM]	Kd ([2]; Kd value printed in the Ki column) [nM]
COC(=O)/C=C1\C[C@H]2C[C@H]([C@@H](C)O)OC(=O)C[C@H](O)C[C@@H]3CCC[C@H](C[C@@H]4CCO[C@H](/C=C/C(C)(C)[C@](O)(O2)C1OC(C)=O)O4)O3 (stereo partly drawn) [Formula 702.2]	181	232 ± 11	–	–	–
CCCCCCCC(=O)O[C@H]1/C(=C/C(=O)OC)CC2C[C@H]([C@@H](C)O)OC(=O)C[C@H](O)C[C@@H]3CCC[C@H](C[C@@H]4CCO[C@H](/C=C/C(C)(C)[C@]1(O)O2)O4)O3 [Formula 1998a, reference compound]	76	–	5.1	–	–
CCCC(=O)O[C@@H]1[C@@H](C)[C@@]2(O)[C@@H](C=C(CO)C[C@]3(O)C(=O)C(C)=C[C@@H]23)[C@@H]2C(C)(C)[C@]12OC(=O)CCC [Phorbol dibutyrate, phorbol 12,13-dibutyrate, reference compound]	–	–	–	1.55	1.7

From patent US7256286B2, “Bryostatin analogues, synthetic methods and uses” (The Board of Trustees of the Leland Stanford Junior …, priority 1999, dated 2007)
